Measured values as given in US20060069132A1, “Azolecarboxamide herbicides” (priority 2004, published 2006).
Where two headings read alike, the source gives them in different places.

What was measured:
[1] = system: kochia; experiment: Test C pre-/postemergence herbicide test; assay type: in vivo, Kochia scoparia
Procedure, shortened: (§1)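 Pre- and postemergence application, solvent/surfactant formulation; post at 1- to 4-leaf stage (2–18 cm). Greenhouse 12–14 d. Visual rating vs controls, 0 = no effect, 100 = complete control.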

[2] = system: yellow nutsedge; experiment: Test C pre-/postemergence herbicide test; assay type: in vivo, Cyperus esculentus
Procedure, shortened: as §1

[3] = system: large crabgrass; experiment: Test C pre-/postemergence herbicide test; assay type: in vivo, Digitaria sanguinalis
Procedure, shortened: as §1

[4] = system: giant foxtail; experiment: Test C pre-/postemergence herbicide test; assay type: in vivo, Setaria faberi
Procedure, shortened: as §1

[5] = system: common ragweed; experiment: Test C pre-/postemergence herbicide test; assay type: in vivo, Ambrosia elatior
Procedure, shortened: as §1

[6] = system: pigweed; experiment: Test C pre-/postemergence herbicide test; assay type: in vivo, Amaranthus retroflexus
Procedure, shortened: as §1

[7] = system: soybean; experiment: Test C pre-/postemergence herbicide test; assay type: in vivo, Glycine max
Procedure, shortened: as §1

[8] = system: bermudagrass; experiment: Test C pre-/postemergence herbicide test; assay type: in vivo, Cynodon dactylon; conditions: Cynodon dactylon, post-emergence, 312 h, scale 0 to 100
Procedure, shortened: as §1

[9] = system: giant foxtail; experiment: Test A pre-/postemergence herbicide test; assay type: in vivo, Setaria faberi; conditions: Setaria faberi, 240 h; for pest or weed control at 500 g/ha: 500 g ai/ha; for pest or weed control at 2000 g/ha: 2000 g ai/ha
Procedure, shortened: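 Visual injury rating on a 0–100 scale (0 no effect, 100 complete control) versus untreated controls, about ten days after treatment in greenhouse. Pre: directed soil spray onto seeded sandy loam. Post: spray to runoff on plants 2–10 cm tall at one- to two-leaf stage.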

[10] = system: morningglory; experiment: Test C pre-/postemergence herbicide test; assay type: in vivo, Ipomoea coccinea
Procedure, shortened: as §1

[11] = Postemergence, 500 g ai/ha, scale 0 to 100
[12] = post-emergence, Postemergence, 0 to 100 scale, 0 no effect, 100 complete control, read-out: Plant response rating, Foxtail, Giant

CCn1nc(C(C)(C)C)cc1C(=O)Nc1cccc(C(=O)OCCF)c1 [Compound 82, 2-fluoroethyl 3-[[[3-(1,1-dimethylethyl)-1-ethyl-1H-pyrazol-5-yl]-carbonyl]amino]benzoate]
pest or weed control at 250 g/ha ([1]; Bassia scoparia, post-emergence, Postemergence, 250 g ai/ha, scale 0 to 100, 0 no effect, 100 complete control, read-out: Plant response rating, Kochia): 50% | pest or weed control at 125 g/ha ([1]; Bassia scoparia, post-emergence, postemergence, 125 g ai/ha, scale 0 to 100, read-out: Plant response rating, Kochia): 40% | pest or weed control at 62 g/ha ([1]; Bassia scoparia, post-emergence, postemergence, 62 g ai/ha, scale 0 to 100, read-out: Plant response rating, Kochia): 10% | Kochia plant response rating [1, 11]: 70 | pest or weed control at 250 g/ha ([2]; Cyperus, post-emergence, Postemergence, 250 g ai/ha, scale 0 to 100, 0 no effect, 100 complete control, read-out: Plant response rating, Nutsedge, Yellow): 5% | pest or weed control at 125 g/ha ([2]; Cyperus, post-emergence, postemergence, 125 g ai/ha, scale 0 to 100, read-out: Plant response rating, Nutsedge, Yellow): 5% | pest or weed control at 62 g/ha ([2]; Cyperus, post-emergence, postemergence, 62 g ai/ha, scale 0 to 100, read-out: Plant response rating, Nutsedge, Yellow): 0% | Nutsedge, Yellow plant response rating [2, 11]: 5 | pest or weed control at 250 g/ha ([3]; Digitaria sanguinalis, post-emergence, 312 h, Postemergence, 250 g ai/ha, scale 0 to 100, 0 no effect, 100 complete control, read-out: Plant response rating, Crabgrass, Large): 0% | pest or weed control at 125 g/ha ([3]; Digitaria sanguinalis, post-emergence, 312 h, postemergence, 125 g ai/ha, scale 0 to 100, read-out: Plant response rating, Crabgrass, Large): 0% | pest or weed control at 62 g/ha ([3]; Digitaria sanguinalis, post-emergence, 312 h, postemergence, 62 g ai/ha, scale 0 to 100, read-out: Plant response rating, Crabgrass, Large): 0% | Crabgrass, Large plant response rating [3, 11]: 60 | Foxtail, Giant plant response rating [4, 11]: 30 | pest or weed control at 250 g/ha ([4]; Setaria faberi, post-emergence, 312 h, Postemergence, 250 g ai/ha, scale 0 to 100, 0 no effect, 100 complete control, read-out: Plant response rating, Foxtail, Giant): 10% | pest or weed control at 125 g/ha ([4]; Setaria faberi, post-emergence, 312 h, postemergence, 125 g ai/ha, scale 0 to 100, read-out: Plant response rating, Foxtail, Giant): 0% | pest or weed control at 62 g/ha ([4]; Setaria faberi, post-emergence, 312 h, postemergence, 62 g ai/ha, scale 0 to 100, read-out: Plant response rating, Foxtail, Giant): 0% | pest or weed control at 250 g/ha ([5]; Ambrosia artemisiifolia, post-emergence, Postemergence, 250 g ai/ha, scale 0 to 100, 0 no effect, 100 complete control, read-out: Plant response rating, Ragweed): 10% | pest or weed control at 125 g/ha ([5]; Ambrosia artemisiifolia, post-emergence, postemergence, 125 g ai/ha, scale 0 to 100, read-out: Plant response rating, Ragweed): 0% | pest or weed control at 62 g/ha ([5]; Ambrosia artemisiifolia, post-emergence, postemergence, 62 g ai/ha, scale 0 to 100, read-out: Plant response rating, Ragweed): 0% | Ragweed plant response rating [5, 11]: 30 | pest or weed control at 250 g/ha ([6]; Amaranthus retroflexus, post-emergence, Postemergence, 250 g ai/ha, scale 0 to 100, 0 no effect, 100 complete control, read-out: Plant response rating, Pigweed): 100% | pest or weed control at 125 g/ha ([6]; Amaranthus retroflexus, post-emergence, postemergence, 125 g ai/ha, scale 0 to 100, read-out: Plant response rating, Pigweed): 100% | pest or weed control at 62 g/ha ([6]; Amaranthus retroflexus, post-emergence, postemergence, 62 g ai/ha, scale 0 to 100, read-out: Plant response rating, Pigweed): 85% | Pigweed plant response rating [6, 11]: 100 | plant injury at 250 g/ha ([7]; Glycine max, post-emergence, Postemergence, 250 g ai/ha, scale 0 to 100, 0 no effect, 100 complete control, read-out: Plant response rating, Soybean): 40% | plant injury at 125 g/ha ([7]; Glycine max, post-emergence, postemergence, 125 g ai/ha, scale 0 to 100, read-out: Plant response rating, Soybean): 30% | plant injury at 62 g/ha ([7]; Glycine max, post-emergence, postemergence, 62 g ai/ha, scale 0 to 100, read-out: Plant response rating, Soybean): 20% | Soybean plant response rating [7, 11]: 40 | pest or weed control at 250 g/ha ([8]; Postemergence, 250 g ai/ha, read-out: Bermudagrass plant response rating): 0% | pest or weed control at 500 g/ha ([8]; Postemergence, 500 g ai/ha, read-out: Bermudagrass plant response rating): 10% | pest or weed control at 125 g/ha ([8]; postemergence, 125 g ai/ha, read-out: Plant response rating, Bermudagrass): 0% | pest or weed control at 62 g/ha ([8]; postemergence, 62 g ai/ha, read-out: Plant response rating, Bermudagrass): 0% | pest or weed control at 500 g/ha [9, 12]: 20% | pest or weed control at 2000 g/ha [9, 12]: 20% | pest or weed control at 500 g/ha ([9]; pre-emergence, Preemergence, visual rating, 0 to 100 scale (0 no effect, 100 complete control), read-out: Foxtail, Giant plant response rating): 0% | pest or weed control at 2000 g/ha ([9]; pre-emergence, Preemergence, 0 to 100 scale, 0 no effect, 100 complete control, read-out: Foxtail, Giant plant response rating): 0% | pest or weed control at 250 g/ha ([10]; Ipomoea, post-emergence, Postemergence, 250 g ai/ha, scale 0 to 100, 0 no effect, 100 complete control, read-out: Plant response rating, Morningglory): 50% | pest or weed control at 125 g/ha ([10]; Ipomoea, post-emergence, postemergence, 125 g ai/ha, scale 0 to 100, read-out: Plant response rating, Morningglory): 10% | pest or weed control at 62 g/ha ([10]; Ipomoea, post-emergence, postemergence, 62 g ai/ha, scale 0 to 100, read-out: Plant response rating, Morningglory): 10% | Morningglory plant response rating [10, 11]: 50
